Laboratory results reported in patent US20240336567A1, “PESTICIDAL AND HERBICIDAL COMPOUNDS AND METHODS OF USE THEREOF” (AG Plenus Ltd, priority 2021, published 2024).

Key:
[1] = in vitro thermal shift (binding of compound to the target); conditions: thermal shift caused by binding of the compound to the (unnamed) target
AMAPA [2] = experiment: In-planta LTP pre-emergence, visual phenotype; type: in vivo, Amaranthus palmeri; conditions: dicot; for pest or weed control at 2000 g/ha: Amaranthus palmeri, 432 h, read-out: IG Inhibited growth (% effect)
Experimental: (§1) A basic panel of 8 weed species (Table 3) were sowed in 4×4×7 cm plastic pots containing inert sand (Sweet sand), intensively washed using osmosis water. Each specie was sowed in a separate pot. In each pot 10-15 seeds were sowed according to the specie viability. Sowing was performed one day before application. The plants were grown for 21 days in a controlled greenhouse (26±2° C. day 20±2° C. night). Hood irrigation (tap water+Shefer 5:3:8 8 mM) was given at a 50% water content by weight. Compounds were soluble in water (DDW), and commercial herbicide control was soluble in formulation B (Table 4). Application was conducted with an industrial sprayer (TeeJet 6502E nozzle) at a rate of 2 kg/ha and spray volume of […]. Pre-emergence advanced dose response experiment application was conducted at six rates between 1-0.0312 kg/ha and spray volume of […]. Percentage of emergence was evaluated at 15 DAA. Visual phenotyping was recorded using a scale of 0-6 (0: no visible effect, 6: maximum effect) at 18 DAA. All experiments included an untreated control, a solvent control and a positive control (commercial herbicide A.I.). Statistical analysis for visual phenotyping determined by a median value of ≥3.5 and Fisher test (pval≤0.05). Statistical analysis for plant emergence determined by % emergence ≥50 and T test (pval≤0.05), as well as Wilcox test (pval≤0.05).

AMAPA [3] = experiment: In-planta LTP post-emergence, visual phenotype; type: in vivo, Amaranthus palmeri; conditions: dicot
Experimental: A basic panel of eight weed species (Table 3) sowed in 4×4×7 cm plastic pots containing a garden mix (klasmann). Each specie was sowed in a separate pot. In each pot, 10-15 seeds were sowed according to the specie viability. Timing of application determined at a 1-2 true leaf stage. The plants grew for 30 days in a controlled greenhouse (26±2° C. day, 20±2° C. night). Hood irrigation (tap water+Shefer 5:3:8 8 mM) was given at a 50% water content by weight. Two days before application, the tested plants thinned down to three plants per pot. Compounds were soluble in water (DDW), and commercial herbicide control was soluble in formulation B (Table 4). Before application, 1% (v/v) crop oil and 0.02% (v/v) surfactant (Tergitol™ 15-5-7) were added to the solution. Application was conducted with an industrial sprayer (TeeJet 6502E nozzle) at a rate of 2 kg/ha and spray volume of […]. Plants were evaluated at 3 time points (4, 8, 12 days after application (DAA)). At each time point, visual phenotyping was recorded using a scale of 0-6 (0: no visible effect, 6: maximum effect). At 12 DAA, plants foliage was harvested, dried and weighed for dry weight analysis.
Post-emergence advanced dose response experiment included 4 species: SETVI, ECHCO, AMAPA, ABUTH (Tables 3, 5). Application was conducted at six rates between 0.6-0.0187 kg/ha and spray volume of […]. Plants were evaluated at 4 time points (6, 12, 18 and 26 DAA). At each time point, visual phenotyping was recorded using a scale of 0-6 (0: no visible effect, 6: maximum effect). At 26 DAA, plants foliage was harvested, dried and weighed for dry weight analysis.
Post-emergence advanced wide panel experiment included 24 weed species (Table 5). Application was conducted at 2 rates of 2 kg/ha and 0.25 kg/ha and spray volume of […]. Visual phenotyping was recorded at 4, 11, 17 and 20 DAA using a scale of 0-6 (0: no visible effect, 6: maximum effect). At 21 DAA, plants foliage was harvested, dried, and weighed for dry weight analysis. All experiments included an untreated control, a solvent control, and a positive control (commercial herbicide A.I.). Statistical analysis for visual phenotyping determined by a median value of ≥3.5 and Fisher test (pval≤0.05). Statistical analysis for dry weight determined by % inhibition ≥50 and T test (pval≤0.05), as well as Wilcox test (pval≤0.05).

Arabidopsis thaliana = experiment: HTPS (high throughput on soil) - Dicot - Post-emergence; type: in vivo; conditions: N/A: not active; for Emax: read-out: HTPS - Dicot - Post Max effect; for HTPS - Dicot - Post ED50: from normalized green area
In short: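 Single plants per well in sand, greenhouse-grown; at 2-true-leaf stage 5 μL compound in 50% acetone/0.1% tween-20 applied to leaves, top dose 1.5 Kg/Ha, 2.5-fold dilutions, 8 repeats. Green area imaged (11 and 18 DAA) for % inhibition; ED50/ED75/ED90 fitted from dose-response, t-test versus controls.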

LOLPE = experiment: In-planta LTP pre-emergence, visual phenotype; type: in vivo, Lolium perenne; conditions: monocot
Experimental: as §1

SMILES	in vitro Thermal Shift [1]	pest or weed control at 2000 g/ha (AMAPA [2])	BL Bleaching (% effect) (AMAPA [3])	Emax (Arabidopsis thaliana)	HTPS - Dicot - Post ED50 (Arabidopsis thaliana)	IG Inhibited growth (% effect) (LOLPE)	IG Inhibited growth (% effect) (AMAPA [3])	DAB Disturbed apical bud (% effect) (AMAPA [2])	DE Disturbed emergence (% effect) (LOLPE)
C[C@@H](N)COc1cccc(C(=O)O)c1 [Compound 154]	13 °C	60%	BL (60) %	100%	16 g/ha	IG (60) %	–	–	–
CCCCOC(=O)c1cccc(OCC(C)N)c1 (stereo not drawn) [Compound 112]	4 °C	60%	–	100%	300 g/ha	IG (40) %	IG (60), %	–	–
CC(N)COc1cccc(C(=O)O)c1 (stereo not drawn) [Compound 106]	13 °C	60%	BL^2 (60) %	100%	102 g/ha	–	–	DAB (60), %	DE (60) %
C#CCOC(=O)c1cccc(OCC(C)N)c1 (stereo not drawn) [Compound 111]	4 °C	60%	BL (40) %	100%	51 g/ha	–	–	–	–
